Assay results published in patent publication US11098041B2 (Merck Patent GmbH, priority 2014, dated 2021).

Key:
[1] = biological target: full-length human BTK (Homo sapiens (Human), UniProt Q06187); assay: Assay A: microfluidic off-chip mobility shift assay against BTK enzyme; type: biochemical
[2] = biological target: BTK C481S (His-TEV-hsBTK(328-659)(C481S)) (Homo sapiens (Human), UniProt Q06187, C481S); assay: Assay B: microfluidic off-chip mobility shift assay against BTK C481S enzyme; type: biochemical; conditions: BTK C481S mutant
BTK C481S (His-TEV-hsBTK(328-659)(C481S)), sequence (Q06187 328-659 C481S): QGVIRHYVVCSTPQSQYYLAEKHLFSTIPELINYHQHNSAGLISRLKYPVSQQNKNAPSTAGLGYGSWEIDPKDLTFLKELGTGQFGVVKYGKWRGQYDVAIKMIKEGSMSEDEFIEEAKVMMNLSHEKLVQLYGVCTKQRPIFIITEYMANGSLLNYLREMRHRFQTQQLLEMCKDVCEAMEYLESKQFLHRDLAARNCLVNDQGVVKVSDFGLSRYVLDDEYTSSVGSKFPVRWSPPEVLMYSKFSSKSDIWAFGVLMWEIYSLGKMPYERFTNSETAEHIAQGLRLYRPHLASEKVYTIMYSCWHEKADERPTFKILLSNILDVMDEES
In short: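 Substrate-to-phosphopeptide conversion quantified by microfluidic mobility shift with laser-induced fluorescence; IC50 and efficacy from log[inhibitor] vs. % activity.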

[3] = tested on: anti-IgM-induced expression of CD69 on CD19 positive cells (B cells) in human PBMCs; assay: Assay C: PBMC IC50 assay (anti-IgM-induced CD69 expression); type: cell-based; conditions: anti-IgM stimulation
Procedure: Btk is critical for mediating the signalling of B cell antigen receptor (BCR) after anti-IgM stimulation. Based on this principle, a functional cell-based assay was established to determine the potency of compounds at inhibiting anti-IgM-induced expression of CD69, a downstream BCR signaling event, in freshly isolated human peripheral blood mononuclear cells (PBMCs). In the assay, a 90 μl PBMC suspension containing 2.5×10^5 cells was pre-treated with 10 μl of test compound at various concentrations for an hour, and then incubated overnight (approximately 16-18 hours) with 5 μl 420 μg/ml affiniPure F(ab′)2 fragment goat anti-human IgM Fc fragment per well (Dianova, Cat. No.: 109-006-129). After the incubation, the cells were washed and immunostained with an APC-labeled mouse anti-human CD69 (BD Biosciences; clone: FN50), a PerCP-Cy5.5 labelled mouse anti-human CD19 (BD Biosciences; clone: SJ25C1) and a FITC-labelled mouse anti-human CD3 (BD Biosciences; clone: HIT3a), and fixed for flow cytometric analysis of CD69 expression on CD19 positive cells (B cells). The percentage of CD69 expressing CD19 positive cells was plotted against the concentrations of test compounds to obtain a concentration response curve, and calculate an IC50 value as a measure of the potency of test compounds in the assay.

full-length human BTK, sequence (Q06187 whole entry): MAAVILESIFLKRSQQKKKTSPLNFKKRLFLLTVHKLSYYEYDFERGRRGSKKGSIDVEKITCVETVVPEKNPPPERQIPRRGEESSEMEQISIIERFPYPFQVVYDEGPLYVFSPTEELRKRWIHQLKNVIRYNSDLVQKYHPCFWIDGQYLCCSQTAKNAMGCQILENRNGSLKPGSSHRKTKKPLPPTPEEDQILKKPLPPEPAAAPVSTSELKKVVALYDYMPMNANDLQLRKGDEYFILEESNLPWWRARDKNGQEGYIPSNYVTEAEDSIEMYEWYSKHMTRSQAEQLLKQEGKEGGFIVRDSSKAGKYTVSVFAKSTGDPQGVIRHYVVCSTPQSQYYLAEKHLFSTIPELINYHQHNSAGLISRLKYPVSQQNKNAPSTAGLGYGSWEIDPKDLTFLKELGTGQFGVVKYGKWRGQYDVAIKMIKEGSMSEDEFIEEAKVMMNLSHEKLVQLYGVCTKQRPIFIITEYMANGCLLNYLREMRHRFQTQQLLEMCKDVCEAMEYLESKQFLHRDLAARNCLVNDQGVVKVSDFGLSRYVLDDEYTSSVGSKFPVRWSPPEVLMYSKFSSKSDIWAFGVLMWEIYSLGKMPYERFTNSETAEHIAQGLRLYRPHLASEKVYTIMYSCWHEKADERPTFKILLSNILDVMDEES

SMILES	IC50 [1] [nM]	IC50 [2] [nM]	IC50 [3] [nM]
Cn1cc(-c2nc3c(-c4cc(F)cc(N5CCOc6cc(C7CC7)cc(F)c6C5=O)c4CO)ccnc3[nH]2)cn1 [Example 37, 8-Cyclopropyl-6-fluoro-4-[5-fluoro-2-(hydroxymethyl)-3-[2-(1-methyl-1H-pyrazol-4-yl)-3H-imidazo [4,5-b]pyridin-7-yl]phenyl]-2,3,4,5-tetrahydro-1,4-benzoxazepin-5-one]	< 100	< 100	100 to 1000
COc1cccc(-c2nc3c(-c4ccc(CNC(=O)c5noc(C(C)(C)C)n5)c(F)c4)ccnc3[nH]2)c1 [Example 73, 5-tert-Butyl-N-([2-fluoro-4-[2-(3-methoxyphenyl)-3H-imidazo[4,5-b]pyridin-7-yl]phenyl]methyl)-1,2,4-oxadiazole-3-carboxamide]	< 100		100 to 1000
Cn1cc(-c2nc3c(-c4cccc(N5CCc6cc(C7CC7)ccc6C5=O)c4CO)ccnc3[nH]2)cn1 [Example 7, 6-cyclopropyl-2-(2-(hydroxymethyl)-3-(2-(1-methyl-1H-pyrazol-4-yl)-3H-imidazo[4,5-b]pyridin-7-yl)phenyl)-3,4-dihydroisoquinolin-1(2H)-one]	< 100		1000 to 5000
CC(C)(C)c1noc(C(=O)NCc2ccc(-c3ccnc4[nH]c(-c5ccc(N6CCC(F)(F)CC6)cn5)nc34)cc2F)n1 [Example 164, 3-tert-butyl-N-[(4-[2-[5-(4,4-difluoropiperidin-1-yl)pyridin-2-yl]-3H-imidazo[4,5-b]pyridin-7-yl]-2-fluorophenyl)methyl]-1,2,4-oxadiazole-5-carboxamide]	< 100		100 to 1000
Cc1c(NC(=O)c2ccc3c(c2)OCC3(C)C)cc(F)cc1-c1ccnc2[nH]c(-c3ccc(C(=O)N4CCOCC4)cc3)nc12 [Example 4, N-[5-Fluoro-2-methyl-3-(2-[4-[(morpholin-4-yl)carbonyl]phenyl]-3H-imidazo[4,5-b]pyridin-7-yl)phenyl]-3,3-dimethyl-2,3-dihydro-1-benzofuran-6-carboxamide]	< 100		100 to 1000
CCn1cc(-c2nc3c(-c4ccc(CNC(=O)c5nnc(C(C)(C)C)o5)c(F)c4)ccnc3[nH]2)cn1 [Example 135, 5-(tert-butyl)-N-(4-(2-(1-ethyl-1H-pyrazol-4-yl)-3H-imidazo[4,5-b]pyridin-7-yl)-2-fluorobenzyl)-1,3,4-oxadiazole-2-carboxamide]	< 100		< 100
O=C(c1ccc(-c2nc3c(-c4cccc(N5CCOc6cc(C7CC7)cc(F)c6C5=O)c4CO)ccnc3[nH]2)cc1)N1CCOCC1 [Example 1, 8-Cyclopropyl-6-fluoro-4-[2-(hydroxymethyl)-3-(2-[4-[(morpholin-4-yl)carbonyl]phenyl]-3H-imidazo [4,5-b]pyridin-7-yl)phenyl]-2,3,4,5-tetrahydro-1,4-benzoxazepin-5-one]	< 100		1000 to 5000
CC(C)(C)c1nc(C(=O)NCc2ccc(-c3ccnc4[nH]c(C5=CCNCC5)nc34)cc2F)no1 [Example 134, 5-tert-Butyl-[1,2,4]oxadiazole-3-carboxylic acid 2-fluoro-4-[2-(1,2,3,6-tetrahydro-pyridin-4-yl)-3H-imidazo[4,5-b]pyridin-7-yl]-benzylamide]	< 100		100 to 1000
Cn1cc(-c2nc3c(-c4cnc(CNC(=O)c5noc(C(C)(C)C)n5)c(F)c4)ccnc3[nH]2)cn1 [Example 12, 5-tert-Butyl-[1,2,4]oxadiazole-3-carboxylic acid {3-fluoro-5-[2-(1-methyl-1H-pyrazol-4-yl)-3H-imidazo[4,5-b]pyridin-7-yl]-pyridin-2-ylmethyl}-amide]	< 100		100 to 1000
CN1CCN(Cc2ccc(-c3nc4c(-c5ccc(CNC(=O)c6noc(C(C)(C)C)n6)c(F)c5)ccnc4[nH]3)nc2)CC1 [Example 69, 5-tert-Butyl-N-[[2-fluoro-4-(2-[5-[(4-methylpiperazin-1-yl)methyl]pyridin-2-yl]-3H-imidazo[4,5-b]pyridin-7-yl)phenyl]methyl]-1,2,4-oxadiazole-3-carboxamide]	< 100		< 100
CN(C)C(=O)N1CC=C(c2nc3c(-c4ccc(CNC(=O)c5noc(C(C)(C)C)n5)c(F)c4)ccnc3[nH]2)CC1 [Example 143, 4-[7-(4-{[(5-tert-Butyl-[1,2,4]oxadiazole-3-carbonyl)-amino]-methyl}-3-fluoro-phenyl)-3H-imidazo[4,5-b]pyridin-2-yl]-3,6-dihydro-2H-pyridine-1-carboxylic Acid Dimethylamide]	< 100		< 100
Cn1cc(-c2nc3c(-c4ccc(CNC(=O)c5noc(C6CC6)n5)c(F)c4)ccnc3[nH]2)cn1 [Example 59, 5-Cyclopropyl-N-([2-fluoro-4-[2-(1-methyl-1H-pyrazol-4-yl)-3H-imidazo[4,5-b]pyridin-7-yl]phenyl]methyl)-1,2,4-oxadiazole-3-carboxamide]	< 100		100 to 1000

Now from value to compound, other results behind:

IC50 [1] [nM]	IC50 [2] [nM]	SMILES	IC50 [3] [nM]
< 100	< 100	COc1ccc(-c2nc3c(-c4ccc(CN5CCOc6cc(C7CC7)cc(F)c6C5=O)c(F)c4)ccnc3[nH]2)nc1 [Example 40, 8-Cyclopropyl-6-fluoro-4-([2-fluoro-4-[2-(5-methoxypyridin-2-yl)-3H-imidazo[4,5-b]pyridin-7-yl]phenyl]methyl)-2,3,4,5-tetrahydro-1,4-benzoxazepin-5-one]	100 to 1000
< 100	< 100	Cn1cc(-c2nc3c(-c4ccc(CNC(=O)c5cc(C(C)(C)C)on5)c(F)c4)ccnc3[nH]2)cn1 [Example 67, 5-tert-Butyl-N-([2-fluoro-4-[2-(1-methyl-1H-pyrazol-4-yl)-3H-imidazo[4,5-b]pyridin-7-yl]phenyl]methyl)-1,2-oxazole-3-carboxamide]	< 100
< 100	< 100	Cn1cc(-c2nc3c(-c4ccc(CN5CCOc6cc(C7CC7)cc(F)c6C5=O)c(F)c4)ccnc3[nH]2)cn1 [Example 34, 8-Cyclopropyl-6-fluoro-4-([2-fluoro-4-[2-(1-methyl-1H-pyrazol-4-yl)-3H-imidazo[4,5-b]pyridin-7-yl]phenyl]methyl)-2,3,4,5-tetrahydro-1,4-benzoxazepin-5-one]	100 to 1000
< 100	< 100	CC(C)(C)c1nc(C(=O)NCc2ccc(-c3ccnc4[nH]c(-c5ccc(C(O)CO)cn5)nc34)cc2F)no1 (centres unmarked) [Example 76, 5-tert-Butyl-N-[(4-[2-[5-(1,2-dihydroxyethyl)pyridin-2-yl]-3H-imidazo[4,5-b]pyridin-7-yl]-2-fluorophenyl)methyl]-1,2,4-oxadiazole-3-carboxamide]	< 100
< 100		C=CC(=O)Nc1cccc(-c2nc3nccc(-c4ccc(CNC(=O)c5nc(C(C)(C)C)no5)c(F)c4)c3[nH]2)c1 [Example 163, 3-tert-butyl-N-[(2-fluoro-4-[2-[3-(prop-2-enamido)phenyl]-3H-imidazo[4,5-b]pyridin-7-yl]phenyl)methyl]-1,2,4-oxadiazole-5-carboxamide]	< 100
< 100	< 100	COc1ccc(-c2nc3c(-c4ccc(CNC(=O)c5ccc(C(C)(C)C)cc5)c(F)c4)ccnc3[nH]2)cc1 [Example 62, 4-tert-Butyl-N-([2-fluoro-4-[2-(4-methoxyphenyl)-3H-imidazo[4,5-b]pyridin-7-yl]phenyl]methyl) benzamide]	100 to 1000
< 100		COc1cccc(-c2nc3c(-c4ccc(CNC(=O)c5ccc(C6CC6)cc5)c(F)c4)ccnc3[nH]2)c1 [Example 64, 4-Cyclopropyl-N-([2-fluoro-4-[2-(3-methoxyphenyl)-3H-imidazo[4,5-b]pyridin-7-yl]phenyl]methyl) benzamide]	100 to 1000
< 100	< 100	CN(C)c1ccc(-c2nc3c(-c4ccc(CNC(=O)c5nc(C(C)(C)C)no5)c(F)c4)ccnc3[nH]2)nc1 [Example 148, 3-(tert-butyl)-N-(4-(2-(5-(dimethylamino)pyridin-2-yl)-3H-imidazo[4,5-b]pyridin-7-yl)-2-fluorobenzyl)-1,2,4-oxadiazole-5-carboxamide]	< 100
< 100	< 100	Cc1cc(-c2ccnc3[nH]c(-c4cnn(C)c4)nc23)ccc1CNC(=O)c1nnc(C(C)(C)C)o1 [Example 103, 5-tert-Butyl-[1,3,4]oxadiazole-2-carboxylic acid 2-methyl-4-[2-(1-methyl-1H-pyrazol-4-yl)-3H-imidazo[4,5-b]pyridin-7-yl]-benzylamide]	< 100
< 100	< 100	Cn1cc(-c2nc3c(-c4ccc(CN5Cc6cc(C7CC7)sc6C5=O)c(F)c4)ccnc3[nH]2)cn1 [Example 93, 2-Cyclopropyl-5-([2-fluoro-4-[2-(1-methyl-1H-pyrazol-4-yl)-3H-imidazo[4,5-b]pyridin-7-yl]phenyl]methyl)-4H,5H,6H-thieno[2,3-c]pyrrol-6-one]	100 to 1000
